Tested on: orthotopic 4T1 breast cancer
Assay: Tumor transport model simulation: IFP/IFV, solute concentration and transvascular convective/diffusive flux profiles
Conditions: DEX treatment

For `C[C@@H]1C[C@H]2[C@@H]3CCC4=CC(=O)C=C[C@]4(C)[C@@]3(F)[C@@H](O)C[C@]2(C)[C@@]1(O)C(=O)CO` [DEX, dexamethasone], the “increase in volume fraction of tumor dominated by convective transport vs control” value was 61%.

— patent publication US20250299826A1, “OPTIMAL TUMOR MICROENVIRONMENT NORMALIZATION THERAPY” (University of Connecticut, priority 2022, published 2025)
